In PubChem BioAssay (NCI):
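Compound exposure: 48 hours, 5 concentrations, 96-well plates. The concentration for 50% growth inhibition is given as GI50. TGI: total growth inhibition.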

Experiments:
Assay in all cases: NCI anticancer screen, dose series, 48 h
[1] = system: SK-MEL-2 melanoma
[2] = system: UACC-62 melanoma
[3] = system: SN12C renal
[4] = system: UO-31 renal
[5] = system: NCI-H23 lung
[6] = system: LOX IMVI melanoma
[7] = system: U251 CNS
[8] = system: BT-549 breast
[9] = system: SK-MEL-5 melanoma
[10] = system: HOP-92 NSCLC
[11] = system: SK-OV-3 ovarian
[12] = system: EKVX NSCLC
[13] = system: RPMI-8226 leukemia
[14] = system: NCI-H460 lung
[15] = system: SF-268 CNS
[16] = system: 786-0 renal
[17] = system: HT29 colon
[18] = system: MDA-MB-435
[19] = system: ACHN renal
[20] = system: OVCAR-5 ovarian
[21] = system: CAKI-1 renal
[22] = system: HCT-15 colon
[23] = system: A498 renal
[24] = system: T-47D breast
[25] = system: COLO 205 colon
[26] = system: SF-295 CNS
[27] = system: UACC-257 melanoma
[28] = system: SR leukemia
[29] = system: HS 578T breast
[30] = system: HCT-116 colon
[31] = system: K-562 leukemia
[32] = system: NCI-H522 lung
[33] = system: HCC-2998 colon
[34] = system: OVCAR-3 ovarian
[35] = system: M14 melanoma
[36] = system: SNB-75 CNS
[37] = system: OVCAR-8 ovarian
[38] = system: HL-60(TB) leukemia
[39] = system: MCF7 breast
[40] = system: OVCAR-4 ovarian
[41] = system: SF-539 CNS
[42] = system: MDA-MB-468 breast
[43] = system: SK-MEL-28 melanoma
[44] = system: SNB-19 CNS
[45] = system: RXF 393 renal
[46] = system: KM12 colon
[47] = system: NCI-H226 lung
[48] = system: PC-3 prostate
[49] = system: A549 NSCLC
[50] = system: MOLT-4 leukemia
[51] = system: TK-10 renal
[52] = system: IGROV1 ovarian
[53] = system: MDA-MB-231 breast
[54] = system: HOP-62 NSCLC
[55] = system: CCRF-CEM leukemia
[56] = system: DU-145 prostate
[57] = system: MALME-3M melanoma
[58] = system: SW-620 colon
[59] = system: NCI/ADR-RES ovarian

## CC(C)N=C([Se])NC(=O)c1cccs1
[1]
  GI50: 15.7 µM
  TGI: 34.5 µM
[2]
  GI50: 14.1 µM
  TGI: 28.7 µM
[3]
  GI50: 10.9 µM
  TGI: 23.9 µM
[4]
  GI50: 13.8 µM
  TGI: 26.7 µM
[5]
  GI50: 10.2 µM
  TGI: 23.8 µM
[6]
  GI50: 13.2 µM
  TGI: 27.2 µM
[7]
  GI50: 7.84 µM
  TGI: 21.5 µM
[8]
  GI50: 15.4 µM
  TGI: 31 µM
[9]
  GI50: 2.82 µM
  TGI: 14.3 µM
[10]
  GI50: 22.1 µM
  TGI: 51.6 µM
[11]
  GI50: 16.2 µM
  TGI: 30.5 µM
[12]
  GI50: 7.45 µM
  TGI: 20.8 µM
[13]
  GI50: 19.9 µM
  TGI: 56.4 µM
[14]
  GI50: 3.37 µM
  TGI: 19 µM
[15]
  GI50: 19.9 µM
  TGI: 57.1 µM
[16]
  GI50: 17.7 µM
  TGI: 31.9 µM
[17]
  GI50: 18.4 µM
  TGI: 46.6 µM
[18]
  GI50: 16.3 µM
  TGI: 33 µM
[19]
  GI50: 18 µM
  TGI: 37.4 µM
[20]
  GI50: 16 µM
  TGI: 31.4 µM
[21]
  GI50: 17 µM
  TGI: 32.6 µM
[22]
  GI50: 18.4 µM
  TGI: 37.5 µM
[23]
  GI50: 6.55 µM
  TGI: 59.2 µM
[24]
  GI50: 19.4 µM
  TGI: 48.8 µM
[25]
  GI50: 16.8 µM
  TGI: 31.7 µM
[26]
  GI50: 2.18 µM
  TGI: 6.77 µM
[27]
  GI50: 15.5 µM
  TGI: 29.8 µM
[28]
  GI50: 12.6 µM
  TGI: 49.9 µM
[29]
  GI50: 7.16 µM
  TGI: 32 µM
[30]
  GI50: 4.78 µM
  TGI: 18.4 µM
[31]
  GI50: 28.4 µM
  TGI: 87.1 µM
[32]
  GI50: 14.4 µM
  TGI: 28.1 µM
[33]
  GI50: 5.8 µM
  TGI: 18.4 µM
[34]
  GI50: 14.9 µM
  TGI: 28.6 µM
[35]
  GI50: 12.7 µM
  TGI: 26.6 µM
[36]
  GI50: 5.51 µM
  TGI: 21.3 µM
[37]
  GI50: 15.6 µM
  TGI: 29.5 µM
[38]
  GI50: 20.3 µM
  TGI: 55.6 µM
[39]
  GI50: 6.58 µM
  TGI: 35.2 µM
[40]
  GI50: 16.8 µM
  TGI: 36 µM
[41]
  GI50: 13.2 µM
  TGI: 26.1 µM
[42]
  GI50: 16.5 µM
  TGI: 34.6 µM
[43]
  GI50: 16.9 µM
  TGI: 35.1 µM
[44]
  GI50: 4.82 µM
  TGI: 20 µM
[45]
  GI50: 12.2 µM
  TGI: 24.8 µM
[46]
  GI50: 12.1 µM
  TGI: 26.2 µM
[47]
  GI50: 16.3 µM
  TGI: 35.3 µM
[48]
  GI50: 4.06 µM
  TGI: 16.6 µM
[49]
  GI50: 4.3 µM
  TGI: 33.1 µM
[50]
  GI50: 20.8 µM
  TGI: 58.1 µM
[51]
  GI50: 16 µM
  TGI: 29.5 µM
[52]
  GI50: 8.04 µM
  TGI: 21.1 µM
[53]
  GI50: 17.6 µM
  TGI: 36.1 µM
[54]
  GI50: 4.11 µM
  TGI: 19.1 µM
[55]
  GI50: 17.4 µM
  TGI: 50.6 µM
[56]
  GI50: 19.3 µM
  TGI: 40 µM
[57]
  GI50: 17 µM
  TGI: 33.2 µM
[58]
  GI50: 16.7 µM
  TGI: 33 µM

## CN1CCN(c2ccc3c(c2)nc(NNC(=O)c2cnccn2)c2cccn23)CC1
[1]
  GI50: 1.21 µM
  TGI: 6.14 µM
[2]
  GI50: 0.444 µM
  TGI: 2.71 µM
[3]
  GI50: 0.583 µM
  TGI: 11.8 µM
[4]
  GI50: 0.0964 µM
  TGI: 1.51 µM
[5]
  GI50: 0.801 µM
  TGI: 12.3 µM
[6]
  GI50: 0.203 µM
  TGI: 6.25 µM
[7]
  GI50: 0.37 µM
  TGI: 11.7 µM
[8]
  GI50: 0.849 µM
  TGI: 13.4 µM
[9]
  GI50: 1.09 µM
  TGI: 2.77 µM
[10]
  GI50: 0.564 µM
  TGI: 5.54 µM
[11]
  GI50: 0.538 µM
  TGI: 5.02 µM
[12]
  GI50: 0.277 µM
  TGI: 3.47 µM
[13]
  GI50: 0.756 µM
  TGI: 12.7 µM
[14]
  GI50: 0.229 µM
  TGI: 4.72 µM
[15]
  GI50: 0.479 µM
  TGI: 13.2 µM
[16]
  GI50: 0.401 µM
  TGI: 2.4 µM
[17]
  GI50: 0.505 µM
  TGI: 4.56 µM
[18]
  GI50: 1.96 µM
  TGI: 18.4 µM
[19]
  GI50: 0.256 µM
  TGI: 1.74 µM
[20]
  GI50: 1.18 µM
  TGI: 12.1 µM
[21]
  GI50: 0.463 µM
  TGI: 5.27 µM
[22]
  GI50: 0.109 µM
  TGI: 1.79 µM
[23]
  GI50: 1.77 µM
  TGI: 3.32 µM
[24]
  GI50: 1.72 µM
  TGI: 9.44 µM
[25]
  GI50: 0.445 µM
  TGI: 9.94 µM
[26]
  GI50: 0.229 µM
  TGI: 3.15 µM
[27]
  GI50: 2.15 µM
  TGI: 7.1 µM
[28]
  GI50: 0.16 µM
[29]
  GI50: 3.6 µM
  TGI: 70.3 µM
[30]
  GI50: 0.259 µM
  TGI: 5.61 µM
[31]
  GI50: 0.631 µM
  TGI: 11.6 µM
[32]
  GI50: 0.944 µM
  TGI: 6.69 µM
[59]
  GI50: 0.829 µM
  TGI: 2.97 µM
[33]
  GI50: 0.453 µM
  TGI: 5.8 µM
[34]
  GI50: 0.406 µM
  TGI: 5.84 µM
[35]
  GI50: 0.517 µM
  TGI: 3.87 µM
[36]
  GI50: 2.93 µM
  TGI: 18 µM
[37]
  GI50: 0.383 µM
  TGI: 7.01 µM
[38]
  GI50: 0.175 µM
  TGI: 1.65 µM
[39]
  GI50: 0.697 µM
  TGI: 7.5 µM
[40]
  GI50: 0.605 µM
  TGI: 12.9 µM
[41]
  GI50: 0.645 µM
  TGI: 6.83 µM
[42]
  GI50: 0.324 µM
  TGI: 2.37 µM
[43]
  GI50: 0.719 µM
  TGI: 12.1 µM
[44]
  GI50: 0.812 µM
  TGI: 14.6 µM
[45]
  GI50: 1.06 µM
  TGI: 3.35 µM
[46]
  GI50: 0.359 µM
  TGI: 14.9 µM
[47]
  GI50: 0.801 µM
  TGI: 3.12 µM
[48]
  GI50: 0.386 µM
  TGI: 8.51 µM
[49]
  GI50: 0.768 µM
  TGI: 12.1 µM
[50]
  GI50: 0.244 µM
[51]
  GI50: 0.158 µM
  TGI: 2.32 µM
[52]
  GI50: 0.413 µM
  TGI: 10.7 µM
[53]
  GI50: 0.607 µM
  TGI: 6.95 µM
[54]
  GI50: 0.361 µM
  TGI: 11.3 µM
[55]
  GI50: 0.182 µM
  TGI: 1.98 µM
[56]
  GI50: 0.912 µM
  TGI: 8.58 µM
[57]
  GI50: 1.62 µM
  TGI: 6.99 µM
[58]
  GI50: 0.638 µM
  TGI: 12.6 µM
